System: Staphylococcus aureus ATCC 6538
Assay: Antibacterial test on treated fabric (AATCC 147:2011; washing standard BS EN ISO 6330 5A)
Format: cell-based
Design: key to Bacteria Growth: (—): no bacterial colonies directly under the treated sample in the contact area were observed
Settings: 37° C. ± 2° C., 18-24 hrs, no washing; for Bacteria Growth: directly under the treated fabric sample in the contact area; for Inhibition Zone (width of clear zone of inhibition): woven fabric treated with the compound, sample 25 × 50 mm
Procedure: In order to determine if the antimicrobic activity of the textile fabrics, Washing Standart: BS EN ISO 6330 5A and Antibacterial Test Standart: AATCC 147:2011 were followed. Details of the method are given in the experimental section of the description.
• Antibacterial tests were carried out using Washing Standart: BS EN ISO 6330 5A, and Antibacterial Test Standart: AATCC 147:2011.

Cc1cc(/N=C/c2cccc3ccccc23)on1 [Example 1, 3-methyl-N-(1-naphthalenylmethylen)-5-isoxazolamine]
Bacteria Growth: (—) | Inhibition Zone (width of clear zone of inhibition): 0 mm

Cc1cc(/N=C/c2ccc3ccccc3c2)on1 [Example 2, 3-methyl-N-(2-naphthalenylmethylen)-5-isoxazolamine]
Bacteria Growth: (—) | Inhibition Zone (width of clear zone of inhibition): 0 mm

Cc1cc(/N=C/c2cc3ccccc3c3ccccc23)on1 [Example 3, 3-methyl-N-(9-phenanthrenylmethylen)-5-isoxazolamine]
Bacteria Growth: (—) | Inhibition Zone (width of clear zone of inhibition): 0 mm

Reference: patent US20170101385A1, “NOVEL ISOXAZOLES, A PROCESS FOR THEIR PREPARATION AND USES THEREOF” (Sanko Tekstil Isletmeleri San. Ve Tic. A.S., priority 2015, published 2017)
